One assay concerns the target T1, BuChE from equine serum (Equus caballus, UniProt P81908).
T1 construct: BuChE from equine serum; purchased Sigma-Aldrich (Steinheim, Germany); host or cells: equine serum
Put plainly: biochemical.

Assay [1] has as its target AChE (E.C. 3.1.1.7, Type V-S, from electric eel) (Electrophorus electricus, UniProt O42275). Put plainly: biochemical.

The record followed here is PMC3599263 (DARU Journal of Pharmaceutical Sciences, 2013).

The structures appear in SMILES notation. Read-outs that look alike come from different tables or passages of the source.

T1 sequence (P81908 whole entry): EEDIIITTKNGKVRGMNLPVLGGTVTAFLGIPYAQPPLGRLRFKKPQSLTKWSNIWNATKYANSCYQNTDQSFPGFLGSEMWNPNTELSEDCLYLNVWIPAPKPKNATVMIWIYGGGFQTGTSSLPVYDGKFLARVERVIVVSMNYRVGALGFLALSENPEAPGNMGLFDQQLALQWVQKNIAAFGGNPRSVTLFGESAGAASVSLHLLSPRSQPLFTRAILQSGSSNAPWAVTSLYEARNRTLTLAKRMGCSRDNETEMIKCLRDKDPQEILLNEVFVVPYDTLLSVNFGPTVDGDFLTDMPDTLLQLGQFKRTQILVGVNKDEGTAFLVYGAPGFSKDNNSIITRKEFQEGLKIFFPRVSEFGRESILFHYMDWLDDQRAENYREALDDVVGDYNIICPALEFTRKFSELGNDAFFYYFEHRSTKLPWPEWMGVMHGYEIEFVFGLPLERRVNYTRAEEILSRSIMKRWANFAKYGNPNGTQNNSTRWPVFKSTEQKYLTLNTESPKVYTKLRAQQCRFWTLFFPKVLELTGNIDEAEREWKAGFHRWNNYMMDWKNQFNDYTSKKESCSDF
Chain of AChE (E.C. 3.1.1.7, Type V-S, from electric eel) (O42275 24-633): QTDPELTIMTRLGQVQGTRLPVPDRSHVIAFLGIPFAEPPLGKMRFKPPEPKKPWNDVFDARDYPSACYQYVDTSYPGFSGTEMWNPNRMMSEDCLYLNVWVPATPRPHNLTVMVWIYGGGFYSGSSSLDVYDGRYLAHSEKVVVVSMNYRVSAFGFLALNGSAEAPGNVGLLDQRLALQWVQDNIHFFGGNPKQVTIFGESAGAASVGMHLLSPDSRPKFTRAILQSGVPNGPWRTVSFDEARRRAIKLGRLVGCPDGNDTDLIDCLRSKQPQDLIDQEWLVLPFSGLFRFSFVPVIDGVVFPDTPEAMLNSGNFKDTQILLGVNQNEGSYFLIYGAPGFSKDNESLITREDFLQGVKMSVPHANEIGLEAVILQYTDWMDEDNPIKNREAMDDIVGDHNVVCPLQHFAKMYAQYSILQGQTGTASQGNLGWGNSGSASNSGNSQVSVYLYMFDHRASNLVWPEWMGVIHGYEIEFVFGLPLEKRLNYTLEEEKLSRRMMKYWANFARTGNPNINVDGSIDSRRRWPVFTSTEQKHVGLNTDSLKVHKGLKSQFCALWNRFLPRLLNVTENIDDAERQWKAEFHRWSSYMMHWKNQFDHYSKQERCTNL

Consider `COc1cc2c(cc1OC)C(=O)/C(=C/c1cc[n+](Cc3ccc(C)cc3)cc1)O2` [5g, (Z)-1-(4-Methylbenzyl)-4-((5,6-dimethoxy-3-oxobenzofuran-2(3H)-ylidene)methyl) pyridinium chloride], for which the concentration for half-maximal inhibition (IC50) (in general, the concentration at which inhibition is half-maximal) is 7600 ± 260 nM at BuChE from equine serum (Ellman's method, 25°C, pH 8.0, 15 min pre-incubation, mean ± SD of three independent experiments, read-out: BuChE (IC50 ± SD)) and 514 ± 29.5 nM in assay [1].
As to `COc1cc2c(cc1OC)C(=O)/C(=C/c1cc[n+](Cc3ccccc3)cc1)O2` [5a, (Z)-1-Benzyl-4-((5,6-dimethoxy-3-oxobenzofuran-2(3H)-ylidene)methyl) pyridinium bromide], the IC50 was found to be 1400 ± 85 nM against BuChE from equine serum and 86 ± 10.9 nM in assay [1].
